According to patent US20130041022A1, “Glyceollins Suppress Androgen-Responsive Prostate Cancer” (UNITED STATES DEPARTMENT OF AGRICULTURE, priority 2008, published 2013):

Key:
Format in all cases: cell-based, human
[1] = test system: LNCaP cells; test: Cell cycle analysis using flow cytometry (PI), LNCaP; conditions: 72 hours; glyceollins 0-25 μM, genistein 25 μM
Procedure: LNCaP cells (3×10^6 cell) were plated in T-175 flask and treated with 0, 0.25, 2.5, 12.5, or 25 μM glyceollins or with and without genistein (25 μM) for 72 hr, cell cycle analysis performed as described below. Results are expressed as % of total cells (n=3).
(§1) Cell cycle analysis using flow cytometry. LNCaP or PC3 cells (3×10^6 cells) were seeded into T-175 flask in Medium A. Twenty-four hours later the medium was changed to that containing vehicle or test compounds. […] The cellular DNA was then analyzed by flow cytometry. DNA content of the cells was determined through flow cytometry using a FACScalibur cytometer (Becton Dickinson, San Jose, Calif.). Flow cytometric data files were collected and analyzed using the CELLQuest program (Becton Dickinson). […] Cell cycle distribution percentages of stained nuclei were calculated using Modfit LT software (Version 3.0, Verity Software House, Inc., Topsham, Me.). […]

[2] = test system: PC-3 cells; test: Cell cycle analysis using flow cytometry (PI), PC-3; conditions: 25 μM, 72 hours
Procedure: PC-3 cells (3×10^6 cells) were plated in T-175 flask and treated with or without 25 μM of glyceollins or genistein for 72 hr, cell cycle analysis performed as described below. Results are expressed as % of total cells (n=3).
as §1

[3] = test system: CDKN1B mRNA; test: RT-PCR CDKN1B mRNA in LNCaP cells; conditions: 48 hours treatment, 0-25 μM
Procedure: LNCaP cells cultured in 10% FBS were treated with 0, 2.5, 12.5, or 25 μM glyceollins for 48 h, total RNA isolated and mRNA levels of CDKN1A determined as described below. Results are expressed as mean+/−SD (n=3).
(§2) Determination of the effects of glyceollins on gene expression in LNCaP cells using RT-PCR. To examine the effects of glyceollins on cyclin inhibitor CDKN1A and B mRNA expression, LNCaP cells were plated in 6-well plates (0.25×10^6 cells/well) in Media A. After twenty-four hours the medium was removed and replaced with fresh medium containing vehicle, 1, 5, or 25 μM glyceollins or genistein. For experiments examining the effects of glyceollins on steroid hormone, LNCaP cells were plated in 6-well plates (0.25×10^6 cells/well) in Media A and switched to Media B containing 10% CDS 24 h after plating to minimize the effect of serum hormones. Twenty-four hours later, the medium was replaced with fresh medium containing 1 nM DHT or 17β-estradiol with or without 0-25 μM glyceollin. For all experiments fresh medium containing the test compounds was changed daily and cells were harvested for total RNA isolation using the Trizol method (Invitrogen) after 48 h. Taqman real-time PCR was used to quantify expression of the mRNA. […]

[4] = test system: CDKN1A mRNA; test: RT-PCR CDKN1A mRNA in LNCaP cells; conditions: 48 hours treatment, 10% FBS
Procedure: LNCaP cells cultured in 10% FBS were treated with 0, 2.5, 12.5, or 25 μM glyceollins for 48 h, total RNA isolated and mRNA levels of CDKN1A determined as described below. Results are expressed as mean +/−SD (n=3).
LNCaP cells cultured in 10% FBS were treated with 0, 1, 5, 12.5 or 25 μM genistein for 48 h, total RNA isolated and mRNA levels of CDKN1A determined as described below. Results are expressed as mean+/−SD (n=3).
as §2, with “For all experiments fresh medium containing the test compounds was changed daily and cells were harvested for total RNA isolation using the Trizol method (Invitrogen) after 48 h.” left out

Compound: O=c1c(-c2ccc(O)cc2)coc2cc(O)cc(O)c12 [genistein]
- effect on cell cycle progression in LNCaP cells [1]: G1/G0 arrest
- G2/M blockage in PC-3 cells [2]: lead to G2/M blockage
- effect on CDKN1B mRNA levels in LNCaP cells [3]: no changes
- concentration at which significant change/induction of CDKN1A mRNA is observed [4]: 25 µM
